Assay results published in publication PMC7782168, “Synthesis, telomerase inhibitory and anticancer activity of new 2-phenyl-4H-chromone derivatives containing 1,3,4-oxadiazole moiety” (Journal of Enzyme Inhibition and Medicinal Chemistry, 2020).

Columns and labels:
[1] = biological target: T1, telomerase (Homo sapiens, UniProt O14746); assay: Telomerase activity assay using MGC-803 cells extract; assay type: biochemical; conditions: mean ± SD
T1 construct: assayed for telomerase activity using MGC-803 cells extract; endogenous in cells; host or cells: MGC-803 cell extract
T1 sequence (O14746 whole entry): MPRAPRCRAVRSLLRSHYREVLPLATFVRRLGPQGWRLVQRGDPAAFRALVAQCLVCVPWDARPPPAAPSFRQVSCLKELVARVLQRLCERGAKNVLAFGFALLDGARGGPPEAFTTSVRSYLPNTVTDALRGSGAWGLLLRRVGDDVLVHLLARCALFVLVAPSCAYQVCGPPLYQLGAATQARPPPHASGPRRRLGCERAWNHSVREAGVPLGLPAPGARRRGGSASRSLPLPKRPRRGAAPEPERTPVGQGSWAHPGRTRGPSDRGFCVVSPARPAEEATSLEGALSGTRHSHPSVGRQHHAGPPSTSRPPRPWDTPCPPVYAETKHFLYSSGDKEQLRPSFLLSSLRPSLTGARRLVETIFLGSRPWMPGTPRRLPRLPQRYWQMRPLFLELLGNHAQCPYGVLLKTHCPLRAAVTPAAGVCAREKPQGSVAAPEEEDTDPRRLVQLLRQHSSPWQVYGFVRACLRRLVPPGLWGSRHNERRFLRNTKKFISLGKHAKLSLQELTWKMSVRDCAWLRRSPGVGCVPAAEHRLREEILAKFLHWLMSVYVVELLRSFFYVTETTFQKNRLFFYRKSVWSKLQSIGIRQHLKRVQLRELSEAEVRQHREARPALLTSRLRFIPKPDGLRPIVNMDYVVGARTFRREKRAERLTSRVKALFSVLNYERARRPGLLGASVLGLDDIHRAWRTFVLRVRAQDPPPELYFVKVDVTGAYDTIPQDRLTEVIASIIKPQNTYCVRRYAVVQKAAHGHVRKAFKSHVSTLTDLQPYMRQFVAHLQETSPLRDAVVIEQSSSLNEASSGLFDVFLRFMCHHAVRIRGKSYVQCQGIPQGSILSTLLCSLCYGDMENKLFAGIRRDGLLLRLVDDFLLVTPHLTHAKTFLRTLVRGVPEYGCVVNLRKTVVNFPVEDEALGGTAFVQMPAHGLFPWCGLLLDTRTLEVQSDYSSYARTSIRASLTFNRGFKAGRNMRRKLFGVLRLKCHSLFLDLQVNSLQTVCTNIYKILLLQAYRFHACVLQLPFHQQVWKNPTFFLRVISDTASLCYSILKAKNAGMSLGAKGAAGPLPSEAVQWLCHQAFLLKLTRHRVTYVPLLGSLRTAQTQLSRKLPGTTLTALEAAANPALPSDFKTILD
T1 sequence (O60832 2-514 partner limits assumed): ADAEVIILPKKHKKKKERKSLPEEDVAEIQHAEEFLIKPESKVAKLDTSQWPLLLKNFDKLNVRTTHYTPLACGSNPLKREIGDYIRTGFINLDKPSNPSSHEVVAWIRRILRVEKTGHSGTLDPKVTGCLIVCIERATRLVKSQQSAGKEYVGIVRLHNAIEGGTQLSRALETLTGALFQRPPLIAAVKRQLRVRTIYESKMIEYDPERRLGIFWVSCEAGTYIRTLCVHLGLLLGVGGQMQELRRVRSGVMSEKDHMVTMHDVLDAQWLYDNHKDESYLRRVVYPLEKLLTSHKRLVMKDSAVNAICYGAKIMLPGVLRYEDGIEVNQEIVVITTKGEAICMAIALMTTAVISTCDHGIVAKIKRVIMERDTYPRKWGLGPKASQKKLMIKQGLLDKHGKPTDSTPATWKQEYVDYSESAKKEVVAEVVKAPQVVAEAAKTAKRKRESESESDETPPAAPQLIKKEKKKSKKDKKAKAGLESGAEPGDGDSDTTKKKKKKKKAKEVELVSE
T1 sequence (Q9NPE3 whole entry partner): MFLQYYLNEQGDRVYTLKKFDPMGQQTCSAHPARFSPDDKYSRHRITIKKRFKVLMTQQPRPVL
T1 sequence (Q9NX24 whole entry partner): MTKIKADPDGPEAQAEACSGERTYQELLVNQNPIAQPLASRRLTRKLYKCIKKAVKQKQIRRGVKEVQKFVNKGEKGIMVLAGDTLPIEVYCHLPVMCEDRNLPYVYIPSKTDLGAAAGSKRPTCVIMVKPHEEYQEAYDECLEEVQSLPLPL
T1 sequence (Q9NY12 whole entry partner): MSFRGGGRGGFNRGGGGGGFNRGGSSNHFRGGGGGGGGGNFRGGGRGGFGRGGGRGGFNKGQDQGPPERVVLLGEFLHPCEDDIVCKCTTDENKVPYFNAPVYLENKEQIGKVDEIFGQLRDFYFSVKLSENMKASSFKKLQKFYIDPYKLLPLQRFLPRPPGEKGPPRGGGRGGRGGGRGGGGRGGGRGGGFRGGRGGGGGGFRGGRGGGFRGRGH

SMILES | melting point | IC50 [1]
COc1cc(OC)c2c(=O)c(OCC(=O)Nc3nnc(-c4cccs4)o3)c(-c3cc(OC)c(OC)c(OC)c3)oc2c1 [A32, 2–(5,7-dimethoxy-4-oxo-2–(3,4,5-trimethoxyphenyl)-4H-chromen-3-yloxy)-N-(5-(thiophen-2-yl)-1,3,4-oxadiazol-2-yl)acetamide] | 224 to 226 °C | 2.22 ± 0.51 µM
COc1cc(OC)c2c(=O)c(OCC(=O)Nc3nnc(-c4ccccc4)o3)c(-c3ccc(OC)c(OC)c3)oc2c1 [B1, 2–(2-(3,4-dimethoxyphenyl)-5,7-dimethoxy-4-oxo-4H-chromen-3-yloxy)-N-(5-phenyl-1,3,4-oxadiazol-2-yl)acetamide] | 237 to 239 °C | > 60 µM
COc1cc(OC)c2c(=O)c(OCC(=O)Nc3nnc(-c4ccc(F)cc4)o3)c(-c3ccc(OC)c(OC)c3)oc2c1 [B2, 2–(2-(3,4-dimethoxyphenyl)-5,7-dimethoxy-4-oxo-4H-chromen-3-yloxy)-N-(5–(4-fluorophenyl)-1,3,4-oxadiazol-2-yl)acetamide] | 236 to 238 °C | 1.38 ± 0.25 µM
COc1cc(OC)c2c(=O)c(OCC(=O)Nc3nnc(-c4cccc(F)c4)o3)c(-c3ccc(OC)c(OC)c3)oc2c1 [B3, 2–(2-(3,4-dimethoxyphenyl)-5,7-dimethoxy-4-oxo-4H-chromen-3-yloxy)-N-(5–(3-fluorophenyl)-1,3,4-oxadiazol-2-yl)acetamide] | 229 to 231 °C | 4.3 ± 0.77 µM
COc1cc(OC)c2c(=O)c(OCC(=O)Nc3nnc(-c4ccccc4F)o3)c(-c3ccc(OC)c(OC)c3)oc2c1 [B4, 2–(2-(3,4-dimethoxyphenyl)-5,7-dimethoxy-4-oxo-4H-chromen-3-yloxy)-N-(5–(2-fluorophenyl)-1,3,4-oxadiazol-2-yl)acetamide] | 235 to 237 °C | 15.3 ± 2.71 µM
COc1cc(OC)c2c(=O)c(OCC(=O)Nc3nnc(-c4ccc(Cl)cc4)o3)c(-c3ccc(OC)c(OC)c3)oc2c1 [B5, N-(5–(4-chlorophenyl)-1,3,4-oxadiazol-2-yl)-2–(2-(3,4-dimethoxyphenyl)-5,7-dimethoxy-4-oxo-4H-chromen-3-yloxy)acetamide] | 213 to 215 °C | 4.22 ± 0.62 µM
COc1cc(OC)c2c(=O)c(OCC(=O)Nc3nnc(-c4cccc(Cl)c4)o3)c(-c3ccc(OC)c(OC)c3)oc2c1 [B6, N-(5–(3-chlorophenyl)-1,3,4-oxadiazol-2-yl)-2–(2-(3,4-dimethoxyphenyl)-5,7-dimethoxy-4-oxo-4H-chromen-3-yloxy)acetamide] | 220 to 222 °C | 15.4 ± 4.2 µM
COc1cc(OC)c2c(=O)c(OCC(=O)Nc3nnc(-c4ccccc4Cl)o3)c(-c3ccc(OC)c(OC)c3)oc2c1 [B7, N-(5–(2-chlorophenyl)-1,3,4-oxadiazol-2-yl)-2–(2-(3,4-dimethoxyphenyl)-5,7-dimethoxy-4-oxo-4H-chromen-3-yloxy)acetamide] | 221 to 223 °C | 24.3 ± 2.7 µM
COc1cc(OC)c2c(=O)c(OCC(=O)Nc3nnc(-c4ccc(Br)cc4)o3)c(-c3ccc(OC)c(OC)c3)oc2c1 [B8, N-(5–(4-bromophenyl)-1,3,4-oxadiazol-2-yl)-2–(2-(3,4-dimethoxyphenyl)-5,7-dimethoxy-4-oxo-4H-chromen-3-yloxy)acetamide] | 212 to 214 °C | 4.29 ± 0.83 µM
COc1cc(OC)c2c(=O)c(OCC(=O)Nc3nnc(-c4cccc(Br)c4)o3)c(-c3ccc(OC)c(OC)c3)oc2c1 [B9, N-(5–(3-bromophenyl)-1,3,4-oxadiazol-2-yl)-2–(2-(3,4-dimethoxyphenyl)-5,7-dimethoxy-4-oxo-4H-chromen-3-yloxy)acetamide] | 204 to 206 °C | 2.9 ± 0.45 µM
COc1cc(OC)c2c(=O)c(OCC(=O)Nc3nnc(-c4ccccc4Br)o3)c(-c3ccc(OC)c(OC)c3)oc2c1 [B10, N-(5–(2-bromophenyl)-1,3,4-oxadiazol-2-yl)-2–(2-(3,4-dimethoxyphenyl)-5,7-dimethoxy-4-oxo-4H-chromen-3-yloxy)acetamide] | 226 to 228 °C | > 60 µM
COc1cc(OC)c2c(=O)c(OCC(=O)Nc3nnc(-c4ccc(C)cc4)o3)c(-c3ccc(OC)c(OC)c3)oc2c1 [B11, 2–(2-(3,4-dimethoxyphenyl)-5,7-dimethoxy-4-oxo-4H-chromen-3-yloxy)-N-(5-p-tolyl-1,3,4-oxadiazol-2-yl)acetamide] | 239 to 241 °C | 5.65 ± 1.77 µM
COc1cc(OC)c2c(=O)c(OCC(=O)Nc3nnc(-c4cccc(C)c4)o3)c(-c3ccc(OC)c(OC)c3)oc2c1 [B12, 2–(2-(3,4-dimethoxyphenyl)-5,7-dimethoxy-4-oxo-4H-chromen-3-yloxy)-N-(5-m-tolyl-1,3,4-oxadiazol-2-yl)acetamide] | 221 to 223 °C | > 60 µM
COc1cc(OC)c2c(=O)c(OCC(=O)Nc3nnc(-c4ccccc4C)o3)c(-c3ccc(OC)c(OC)c3)oc2c1 [B13, 2–(2-(3,4-dimethoxyphenyl)-5,7-dimethoxy-4-oxo-4H-chromen-3-yloxy)-N-(5-o-tolyl-1,3,4-oxadiazol-2-yl)acetamide] | 234 to 236 °C | 8.09 ± 2.25 µM

Results, then the compound that gave them:

melting point | IC50 [1] | SMILES
235 to 237 °C | 8.29 ± 1.33 µM | COc1cc(OC)c2c(=O)c(OCC(=O)Nc3nnc(-c4cccc([N+](=O)[O-])c4)o3)c(-c3ccc(OC)c(OC)c3)oc2c1 [B14, 2–(2-(3,4-dimethoxyphenyl)-5,7-dimethoxy-4-oxo-4H-chromen-3-yloxy)-N-(5–(3-nitrophenyl)-1,3,4-oxadiazol-2-yl)acetamide]
254 to 256 °C | 17.2 ± 2.98 µM | COc1cc(OC)c2c(=O)c(OCC(=O)Nc3nnc(-c4ccccc4[N+](=O)[O-])o3)c(-c3ccc(OC)c(OC)c3)oc2c1 [B15, 2–(2-(3,4-dimethoxyphenyl)-5,7-dimethoxy-4-oxo-4H-chromen-3-yloxy)-N-(5–(2-nitrophenyl)-1,3,4-oxadiazol-2-yl)acetamide]
210 to 212 °C | 1.29 ± 0.2 µM | COc1cc(OC)c2c(=O)c(OCC(=O)Nc3nnc(-c4ccc(C(F)(F)F)cc4)o3)c(-c3ccc(OC)c(OC)c3)oc2c1 [B16, 2–(2-(3,4-dimethoxyphenyl)-5,7-dimethoxy-4-oxo-4H-chromen-3-yloxy)-N-(5–(4-(trifluoromethyl)phenyl)-1,3,4-oxadiazol-2-yl)acetamide]
195 to 197 °C | 27.6 ± 3.11 µM | COc1cc(OC)c2c(=O)c(OCC(=O)Nc3nnc(-c4cccc(C(F)(F)F)c4)o3)c(-c3ccc(OC)c(OC)c3)oc2c1 [B17, 2–(2-(3,4-dimethoxyphenyl)-5,7-dimethoxy-4-oxo-4H-chromen-3-yloxy)-N-(5–(3-(trifluoromethyl)phenyl)-1,3,4-oxadiazol-2-yl)acetamide]
225 to 227 °C | 2.79 ± 0.55 µM | COc1cc(OC)c2c(=O)c(OCC(=O)Nc3nnc(-c4ccccc4C(F)(F)F)o3)c(-c3ccc(OC)c(OC)c3)oc2c1 [B18, 2–(2-(3,4-dimethoxyphenyl)-5,7-dimethoxy-4-oxo-4H-chromen-3-yloxy)-N-(5–(2-(trifluoromethyl)phenyl)-1,3,4-oxadiazol-2-yl)acetamide]
217 to 219 °C | 1.77 ± 0.6 µM | COc1cc(OC)c2c(=O)c(OCC(=O)Nc3nnc(-c4ccc(OC(F)(F)F)cc4)o3)c(-c3ccc(OC)c(OC)c3)oc2c1 [B19, 2–(2-(3,4-dimethoxyphenyl)-5,7-dimethoxy-4-oxo-4H-chromen-3-yloxy)-N-(5–(4-(trifluoromethoxy)phenyl)-1,3,4-oxadiazol-2-yl)acetamide]
207 to 209 °C | 20 ± 1.96 µM | COc1cc(OC)c2c(=O)c(OCC(=O)Nc3nnc(-c4cccc(OC(F)(F)F)c4)o3)c(-c3ccc(OC)c(OC)c3)oc2c1 [B20, 2–(2-(3,4-dimethoxyphenyl)-5,7-dimethoxy-4-oxo-4H-chromen-3-yloxy)-N-(5–(3-(trifluoromethoxy)phenyl)-1,3,4-oxadiazol-2-yl)acetamide]
226 to 228 °C | 9.22 ± 1.01 µM | COc1cc(OC)c2c(=O)c(OCC(=O)Nc3nnc(-c4ccccc4OC(F)(F)F)o3)c(-c3ccc(OC)c(OC)c3)oc2c1 [B21, 2–(2-(3,4-dimethoxyphenyl)-5,7-dimethoxy-4-oxo-4H-chromen-3-yloxy)-N-(5–(2-(trifluoromethoxy)phenyl)-1,3,4-oxadiazol-2-yl)acetamide]
206 to 208 °C | 14.3 ± 1.33 µM | COc1ccc(-c2nnc(NC(=O)COc3c(-c4ccc(OC)c(OC)c4)oc4cc(OC)cc(OC)c4c3=O)o2)cc1 [B22, 2–(2-(3,4-dimethoxyphenyl)-5,7-dimethoxy-4-oxo-4H-chromen-3-yloxy)-N-(5–(4-methoxyphenyl)-1,3,4-oxadiazol-2-yl)acetamide]
205 to 207 °C | 2.44 ± 0.42 µM | COc1cccc(-c2nnc(NC(=O)COc3c(-c4ccc(OC)c(OC)c4)oc4cc(OC)cc(OC)c4c3=O)o2)c1 [B23, 2–(2-(3,4-dimethoxyphenyl)-5,7-dimethoxy-4-oxo-4H-chromen-3-yloxy)-N-(5–(3-methoxyphenyl)-1,3,4-oxadiazol-2-yl)acetamide]
232 to 234 °C | 4.17 ± 0.7 µM | COc1cc(OC)c2c(=O)c(OCC(=O)Nc3nnc(-c4ccc(F)c(Cl)c4)o3)c(-c3ccc(OC)c(OC)c3)oc2c1 [B24, N-(5–(3-chloro-4-fluorophenyl)-1,3,4-oxadiazol-2-yl)-2–(2-(3,4-dimethoxyphenyl)-5,7-dimethoxy-4-oxo-4H-chromen-3-yloxy)acetamide]
230 to 232 °C | > 60 µM | COc1cc(OC)c2c(=O)c(OCC(=O)Nc3nnc(-c4ccc(Cl)c(Cl)c4)o3)c(-c3ccc(OC)c(OC)c3)oc2c1 [B25, N-(5–(3,4-dichlorophenyl)-1,3,4-oxadiazol-2-yl)-2–(2-(3,4-dimethoxyphenyl)-5,7-dimethoxy-4-oxo-4H-chromen-3-yloxy)acetamide]
200 to 202 °C | 3.99 ± 0.85 µM | COc1cc(OC)cc(-c2nnc(NC(=O)COc3c(-c4ccc(OC)c(OC)c4)oc4cc(OC)cc(OC)c4c3=O)o2)c1 [B26, N-(5–(3,5-dimethoxyphenyl)-1,3,4-oxadiazol-2-yl)-2–(2-(3,4-dimethoxyphenyl)-5,7-dimethoxy-4-oxo-4H-chromen-3-yloxy)acetamide]
